The values below come from US20220170028A1, “NOVEL INTERLEUKIN-2 VARIANTS AND BIFUNCTIONAL FUSION MOLECULES THEREOF” (Cugene Inc, priority 2019, published 2022).

The nature of series [1]: Aggregate content by size-exclusion chromatography after Protein A purification. Format: physicochemical. To be noted: Isoleucine-125 constructs; after MabSelectSure. Here is the method:
For affinity chromatography each supernatant was loaded on a HiTrap MabSelectSure column (CV=5 mL, GE Healthcare) equilibrated with 25 ml phosphate buffered saline, pH 7.2 (ThermoFisher). Unbound protein was removed by washing with 5 column volumes PBS, pH 7.2 and target protein was eluted with 25 mM sodium citrate, 25 mM sodium chloride, pH 3.2. Protein solution was neutralized by adding 3% of 1 M Tris pH 10.2. Ion exchange chromatography or mix-mode chromatography, including but not limited to CaptoMMC (GE Healthcare), ceramic hydroxyapatite, or ceramic fluoroapatite (Bio-Rad) was also utilized to polish the Protein A material as needed. Target protein was concentrated with an Amicon®Ultra-15 concentrator 10 KDa NMWC (Merck Millipore Ltd.)
The purity and molecular weight of the purified constructs were analyzed by SDS-PAGE with and in the absence of a reducing agent and staining with Coomassie (Imperial® Stain). The NuPAGE® Pre-Cast gel system (4-12% or 8-16% Bis-Tris, ThermoFisher) was used according to the manufacturer's instructions. The protein concentration of purified protein samples was determined by measuring the UV absorbance at 280 nm (Nanodrop Spectrophotometer, ThermoFisher) divided by the molar extinction coefficient calculated on the basis of the amino acid sequence. The aggregate content of the constructs was analyzed on an Agilent 1200 high-performance liquid chromatography (HPLC) system. Samples were injected onto an AdvanceBio size-exclusion column (300 Å, 4.6×150 mm, 2.7 μm, LC column, Agilent) using 150 mM sodium phosphate, pH 7.0 as the mobile phase at 25° C.
S125I substitution was thus introduced into a number of IL-2 variant Fc fusion molecules. The constructs harboring Ile-125 substitution in IL-2 were expressed using the same vector and in the same culturing conditions as their Ser-125 counterparts and purified using MabSelectSure. The expression level in mg/L and purity assessed by SEC chromatography in aggregation % of exemplary molecules are summarized in Table 6. The two molecules in the same row of Table 6 share the same other amino acid substitution(s) and differ only at residue 125 with either serine or isoleucine. As an example, the SEC chromatogram and SDS-PAGE pictures of P-0447 (SEQ ID NO: 173) and its Ile-125 counterpart P-0511 (SEQ ID NO: 213) were further illustrated in FIGS. 1D and 1E.
On the technique in general: Size exclusion chromatography separates by hydrodynamic size, large species first.

For series [2], the system named is STAT5 phosphorylation in CD4+ Tconv cells. As to the kind of experiment: STAT5 phosphorylation in CD4+ Tconv cells, human PBMC assay by FACS. In kind it is cell-based. The essentials:
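Donor PBMCs were starved in serum-free buffer at 4° C for 1 h, then 2×10^5 cells were exposed to serial dilutions of IL-2 variants for 30 min at 37° C. After fixation and permeabilization they were stained for CD4, CD25, FOXP3 and pSTAT5. Read-out is percent pSTAT5+ cells among CD4+/Foxp3+/CD25^high (Treg) or CD4+/Foxp3−/CD25^low (Tconv) cells by flow cytometry.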
(In general: Flow cytometry measures light scatter and fluorescence of single cells or particles in a stream.)

Series [3] has as its system STAT5 phosphorylation in CD8+ T cells. Kind of series: STAT5 phosphorylation in CD8+ T cells, human PBMC. In kind it is cell-based. From the text: The Stat5 phosphorylation activity on other responder cells than CD4+ T cell subsets, including CD8+T and NK, by P-0511 was compared to P-0531, the S125I equivalent of wild-type P-0250. […] IL-2 receptors expressed on CD4+ Tconv, CD8+T and NK cells are primarily dimeric IL-2Rs, comprising IL-2R6 and γc.

In series [4] the test system is NK cells. As to the kind of experiment: NK cell proliferation, CFSE dilution, human PBMC. Format: cell-based. To be noted: 5 or 7 days incubation. Here is the method:
Further, P-0511 and P-0512 were tested for their ability to stimulate NK and CD8+ T cells proliferation in comparison with the wild type and benchmark molecules. Intracellular fluorescent label carboxyfluorescein diacetate succinimidyl ester (CFSE) method was utilized. Briefly, human PBMC (1×10^5 cells/well) were labeled with CFSE, plated onto 96-well plates, and incubated with increasing concentrations of different IL-2 compounds. Cells were then harvested after 5 or 7 days of incubation and stained with either anti-CD56-APC antibody for NK cells or anti-CD8-APC antibody for CD8+ T cells; and analyzed by flow cytometry. Data are expressed as a percent of divided cells and illustrated in FIG. 10A for CD8+ T cell proliferation and FIG. 10B for NK cell proliferation.

Series [5] relates to CD4+ Tconv cells, CD8 Teff and NK cells. Kind of series: Dose-response pharmacodynamics, CD4+ Tconv, CD8 and NK cells in mice (Example 10). The following applies: single s.c. dose, Balb/C mice. Format: in vivo, mouse. Here is the method:
Following a single subcutaneous administration of vehicle (PBS) or P-0511 (1, 0.3, 0.1, or 0.03 mg/kg) to female Balb/C mice (n=5/group), peripheral blood was collected on day −2 as baseline, and post dose on days 3, 5, and 7. On day 7, mice were sacrificed, and spleens were harvested. Blood lymphocyte phenotyping, proliferation and expansion were measured by flow cytometry at each timepoint using fresh whole blood.

For “P-0511: IL-2 L19H/S125I/Q126E Fc fusion, SEQ ID NO: 213”, the “Aggregation % (SEC)” value in series [1] is reported as 0.7%. Besides, the “STAT5 phosphorylation activity in CD4+ Tconv cells (in words)” value in series [2] is reported as “nearly completely abolished”. Further, the “STAT5 phosphorylation activity in CD8+ T cells (in words)” value in series [3] is “nearly completely abolished”. Besides, in series [4], the “potency in stimulating NK cell proliferation (in words)” value was “on par with Benchmark-3”. Moreover, in series [5], the “percentages of CD4+ Tconv, CD8 Teff and NK cells over the total lymphocytes” value was “no statistically significant changes”.
